Reference: article PMC7413254 (Nature Communications, 2020)

Legend:
Format in all cases: cell-based
PfCRT^Dd2 [1] = target: T1, PfCRT^Dd2 (Plasmodium falciparum, UniProt Q9N623, A220S/I356T/K76T/M74I/N326S/N75E/Q271E/R371I); assay: [3H]CQ uptake into Xenopus oocytes, cis-inhibition by unlabelled solute; details: PfCRTDd2 oocytes, background [3H]CQ accumulation subtracted, normalised to oocyte type control
Text: (§1) The orientation of PfCRT in the parasite’s DV membrane, and also in the oocyte plasma membrane, is such that its N- and C-termini extend into the cytosol. The oocytes were suspended in a reaction buffer adjusted to pH 5.5 to mimic the pH of the DV lumen[1],[2]. In this scenario, the transport of a substrate via PfCRT from the acidic extracellular solution into the oocyte cytosol[15] is analogous to the parasite’s PfCRT-mediated efflux of a substrate from the acidic DV and into the cytosol. Unless specified otherwise, this is the direction in which substrate transport was measured in the oocyte assays.
(§2) Unless specified otherwise, the transport assays were conducted over 1.5 h at 27.5 °C and the reaction buffer was ND96 (96 mM NaCl, 2 mM KCl, 1 mM MgCl2, 1.8 mM CaCl2, 10 mM MES and 10 mM Tris-base) at pH 5.5.
(§3) Ten oocytes were washed twice with the relevant ND96 buffer. […] The assay was terminated by removing the reaction buffer and washing the oocytes with ice-cold ND96 buffer. The oocytes were lysed in 10% (w/v) sodium dodecyl sulfate (SDS) and the radioactivity accumulated within each oocyte was measured with a MicroBeta^2 microplate liquid scintillation analyser (PerkinElmer).
(§4) At least four independent experiments were performed (on different days and using oocytes from different frogs), and within each experiment measurements were made from ten oocytes per treatment.

PfCRT^Ecu1110 [2] = target: T2, PfCRT^Ecu1110 (Plasmodium falciparum, UniProt Q9N623, A220S/I356L/K76T/N326D); assay: as above; details: for PfCRT-mediated [3H]CQ transport, cis-inhibition (% PfCRTEcu1110 control): PfCRTEcu1110 oocytes, background [3H]CQ accumulation subtracted, normalised to oocyte type control; for [3H]CQ transport (% PfCRTEcu1110 control), cis-inhibition, PfCRTEcu1110: PfCRT-mediated component (background subtracted), sheet title says normalised to PfCRTDd2 control, mean ± SEM, SEM
T2 sequence (Q9N623 whole entry A220S/I356L/K76T/N326D): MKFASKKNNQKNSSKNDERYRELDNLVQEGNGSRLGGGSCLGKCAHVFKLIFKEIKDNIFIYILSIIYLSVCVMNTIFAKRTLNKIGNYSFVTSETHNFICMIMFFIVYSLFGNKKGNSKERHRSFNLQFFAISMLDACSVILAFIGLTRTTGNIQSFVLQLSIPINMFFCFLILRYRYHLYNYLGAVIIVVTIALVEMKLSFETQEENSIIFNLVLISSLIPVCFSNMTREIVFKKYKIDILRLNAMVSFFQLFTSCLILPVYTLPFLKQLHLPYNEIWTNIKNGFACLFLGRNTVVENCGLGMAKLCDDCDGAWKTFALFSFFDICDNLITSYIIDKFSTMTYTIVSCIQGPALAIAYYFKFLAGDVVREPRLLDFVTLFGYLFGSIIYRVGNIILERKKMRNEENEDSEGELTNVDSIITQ
Text: as §1, §2, §3, §4

PfCRT^3D7 = PfCRT^3D7 (Plasmodium falciparum, UniProt Q8IBZ9); assay: cell-based; details: for PfCRT-mediated [3H]CQ transport, trans-stimulation (% PfCRT3D7 control): PfCRT3D7 oocytes, normalised to oocyte type control
Sequence of PfCRT^3D7 (Q8IBZ9 59-398): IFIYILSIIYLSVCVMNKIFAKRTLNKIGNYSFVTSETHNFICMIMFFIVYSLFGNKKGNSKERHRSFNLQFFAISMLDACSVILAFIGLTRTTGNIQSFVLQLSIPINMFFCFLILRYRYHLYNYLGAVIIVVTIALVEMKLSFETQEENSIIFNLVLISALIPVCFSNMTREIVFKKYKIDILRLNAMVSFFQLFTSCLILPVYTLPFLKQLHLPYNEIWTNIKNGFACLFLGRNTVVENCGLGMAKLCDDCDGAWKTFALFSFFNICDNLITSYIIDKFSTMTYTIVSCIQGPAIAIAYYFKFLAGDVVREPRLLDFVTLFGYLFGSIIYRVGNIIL
Protocol: as §2
(§5) The intracellular concentrations were calculated using previous estimates of the volume of stage V–VI oocytes (~400 nL[60]). […] The oocytes were injected with VF-6 suspended in 25 nL ND96 buffer adjusted to pH 5.0, 5.5, 6.0 or 7.0, which corresponded to the injection of 2.5–250 fmol of H^+. The Na^+-dependence of the trans-stimulatory effect of VF-6 was assessed by injecting the oocytes with VF-6 suspended in ND96 buffer (pH 5.5) or a Na^+-free version of this buffer (the Na^+ was replaced with choline).
as §4

PfCRT^Dd2 [3] = target: T1, PfCRT^Dd2; assay: cell-based; details: for PfCRT-mediated [3H]CQ transport, trans-stimulation (% PfCRTDd2 control): PfCRTDd2 oocytes, normalised to oocyte type control; for [3H]CQ transport (% PfCRTDd2 control), trans-stimulation, PfCRTDd2: PfCRT-mediated component (background subtracted), mean ± SEM, SEM
Protocol: as §2, §5, §4

PfCRT^Ecu1110 [4] = target: T2, PfCRT^Ecu1110; assay: cell-based; details: for PfCRT-mediated [3H]CQ transport, trans-stimulation (% PfCRTEcu1110 control): PfCRTEcu1110 oocytes, normalised to oocyte type control; for [3H]CQ transport (% PfCRTDd2 control), trans-stimulation, PfCRTEcu1110: PfCRT-mediated component (background subtracted), sheet title says normalised to PfCRTDd2 control, mean ± SEM, SEM
Protocol: as §2, §5, §4

[5] = [test solute]i = 5 mM (intracellular)
[6] = [test solute]i = 45 mM (intracellular; 30 mM for some solutes due to solubility)
[7] = [test solute]i = 5 mM (injected)
[8] = [test solute]i = 45 mM (30 mM for some solutes due to solubility)

T1 sequence (Q9N623 whole entry A220S/I356T/K76T/M74I/N326S/N75E/Q271E/R371I): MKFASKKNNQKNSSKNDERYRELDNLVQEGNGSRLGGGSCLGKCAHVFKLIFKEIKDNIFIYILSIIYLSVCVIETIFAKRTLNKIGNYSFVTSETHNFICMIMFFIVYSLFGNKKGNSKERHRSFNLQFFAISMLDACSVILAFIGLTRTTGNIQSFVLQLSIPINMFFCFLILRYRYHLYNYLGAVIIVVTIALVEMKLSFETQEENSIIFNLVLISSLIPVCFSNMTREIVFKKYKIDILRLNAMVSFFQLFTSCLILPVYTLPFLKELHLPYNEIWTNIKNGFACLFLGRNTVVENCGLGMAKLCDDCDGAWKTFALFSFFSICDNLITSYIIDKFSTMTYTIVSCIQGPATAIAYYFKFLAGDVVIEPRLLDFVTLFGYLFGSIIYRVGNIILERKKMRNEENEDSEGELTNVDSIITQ

Row | Substance | PfCRT-mediated [3H]CQ transport, cis-inhibition (% PfCRTDd2 control) (PfCRT^Dd2 [1]; [test solute] = 0.5 mM) | PfCRT-mediated [3H]CQ transport, cis-inhibition (% PfCRTDd2 control) (PfCRT^Dd2 [1]; [test solute] = 1 mM) | PfCRT-mediated [3H]CQ transport, cis-inhibition (% PfCRTDd2 control) (PfCRT^Dd2 [1]; [test solute] = 2 mM) | PfCRT-mediated [3H]CQ transport, cis-inhibition (% PfCRTEcu1110 control) (PfCRT^Ecu1110 [2]; [test solute] = 0.5 mM) | PfCRT-mediated [3H]CQ transport, cis-inhibition (% PfCRTEcu1110 control) (PfCRT^Ecu1110 [2]; [test solute] = 1 mM) | PfCRT-mediated [3H]CQ transport, cis-inhibition (% PfCRTEcu1110 control) (PfCRT^Ecu1110 [2]; [test solute] = 2 mM) | [3H]CQ transport (% PfCRTEcu1110 control), cis-inhibition, PfCRTEcu1110 (PfCRT^Ecu1110 [2]; [test solute] = 2 mM) [% PfCRTEcu1110 control] | [3H]CQ transport (% PfCRT3D7 control), trans-stimulation, PfCRT3D7 (PfCRT^3D7; SEM) | PfCRT-mediated [3H]CQ transport, trans-stimulation (% PfCRT3D7 control) (PfCRT^3D7; [5]) | PfCRT-mediated [3H]CQ transport, trans-stimulation (% PfCRT3D7 control) (PfCRT^3D7; [6]) | PfCRT-mediated [3H]CQ transport, trans-stimulation (% PfCRTDd2 control) (PfCRT^Dd2 [3]; [5]) | PfCRT-mediated [3H]CQ transport, trans-stimulation (% PfCRTDd2 control) (PfCRT^Dd2 [3]; [6]) | [3H]CQ transport (% PfCRTDd2 control), trans-stimulation, PfCRTDd2 (PfCRT^Dd2 [3]; [7]) [% PfCRTDd2 control] | [3H]CQ transport (% PfCRTDd2 control), trans-stimulation, PfCRTDd2 (PfCRT^Dd2 [3]; [8]) [% PfCRTDd2 control] | PfCRT-mediated [3H]CQ transport, trans-stimulation (% PfCRTEcu1110 control) (PfCRT^Ecu1110 [4]; [5]) | PfCRT-mediated [3H]CQ transport, trans-stimulation (% PfCRTEcu1110 control) (PfCRT^Ecu1110 [4]; [6]) | [3H]CQ transport (% PfCRTDd2 control), trans-stimulation, PfCRTEcu1110 (PfCRT^Ecu1110 [4]; [7]) [% PfCRTEcu1110 control] | [3H]CQ transport (% PfCRTDd2 control), trans-stimulation, PfCRTEcu1110 (PfCRT^Ecu1110 [4]; [8]) [% PfCRTEcu1110 control] | [3H]CQ transport (% PfCRTEcu1110 control), cis-inhibition, PfCRTEcu1110 (PfCRT^Ecu1110 [2]; [test solute] = 0.5 mM) [% PfCRTEcu1110 control] | [3H]CQ transport (% PfCRTEcu1110 control), cis-inhibition, PfCRTEcu1110 (PfCRT^Ecu1110 [2]; [test solute] = 1 mM) [% PfCRTEcu1110 control]
1 | AEALERMF [AF-8] | 61 ± 1.3 | 52 ± 2.6 | 19 ± 0.1 | 52 ± 2.9 | 41 ± 2.1 | 32 ± 1.1 | 10 ± 0.06 | 0.1 ± 0.03 | 97 ± 3.2 | 97 ± 3.5 | 97 ± 2.8 | 96 ± 4.3 | 97 ± 2.8 | 96 ± 4.3 | 96 ± 3.1 | 98 ± 4.1 | 29 ± 1.0 | 30 ± 1.9 | – | –
2 | DLDDALDK [DK-8] | 44 ± 3.7 | 32 ± 1.5 | 24 ± 0.8 | 49 ± 1.4 | 39 ± 2.1 | 30 ± 0.8 | 9.0 ± 0.05 | – | 96 ± 3.3 | 96 ± 3.4 | 98 ± 3.3 | 95 ± 4.1 | 98 ± 3.3 | 95 ± 4.1 | 95 ± 4.9 | 97 ± 2.9 | 29 ± 1.5 | 29 ± 1.1 | 15 ± 0.6 | 13 ± 0.1
3 | DLPVG [DG-5] | 29 ± 0.6 | 22 ± 1.3 | 11 ± 0.1 | 46 ± 1.8 | 33 ± 2.7 | – | 5.0 ± 0.05 | – | 128 ± 2.2 | 146 ± 3.2 | 98 ± 1.0 | 113 ± 1.1 | 98 ± 1.0 | 113 ± 1.1 | 115 ± 1.5 | 118 ± 1.1 | 35 ± 1.5 | 36 ± 1.3 | 14 ± 0.5 | 10 ± 0.6
